Data on one compound can be found in patent US11286236B2, “Compound, agent and composition for the suppression of cancer growth” (Vector Vitale IP LLC, priority 2018, dated 2022).

Format in all cases: cell-based
For assay [1], the system named is human Keratinocytes (HaCaT line). The assay is described as follows: Metabolic activity of human keratinocytes (HaCaT line). How it is done:
In Vitro Effects of Experimental Compound ^85Rbe-E2 on metabolic activity of human Keratinocytes
(§1) Proliferative and metabolic activity of cells was determined by the colorimetric method.
(§2) The metabolic activity of the cells (i.e., the number of living cells) was assessed by MTT staining.
(§3) 24 hours after the last reagent, the cells were seeded at a concentration of 1×10^4 cells/well in wells of a 96-well plate in complete DMEM nutrient medium with 10% FBS and 40 μg/ml gentamicin. The cells were cultured in a humidified atmosphere at 5% CO2 and 37° C. for 24 hours. After 24 hours, various doses of experimental substances were added to the respective wells. The cells were incubated at 37° C. and 5% CO2 for an additional 72 hours.
(§4) Upon completion of the incubation with the preparations, the proliferative and metabolic activity of the cells in the experiment was evaluated by the colorimetric method by staining MTT cells:
(§5) 10 μl of the MTT solution (5 mg/ml of the dye in phosphate-buffered saline) was added to each well of the plate; the plate was incubated in a CO2 incubator at 37° C. for 3 hours. After that, the medium was removed from the wells, and the formed tetraformazan crystals were dissolved in 100 μl of dimethylsulfoxide.
(§6) When MTT was used, the results were evaluated using a multi-well spectrophotometer at an excitation wavelength of 540 nm. The percentage of viable cells was calculated by the formula: IR=(A540(experiment)/A540(control))×100%.

For another assay, the system named is Normal Human Fibroblasts. The assay is described as follows: Metabolic activity of normal human fibroblasts (MTT assay). The procedure: In Vitro Assessment of the Effects of Experimental Compound ^85Rbe-E2 on metabolic Activity of Normal Human Fibroblasts (MTT Assay)
In Vitro Assessment of the Effects of E2+^85Rbe on Metabolic Activity of Normal Human Fibroblasts (MTT Assay)
as §1, §2, §3, §4, §5, §6
A general note: Tetrazolium dyes change colour on reduction, which living cells bring about.

In the next assay the test system is Mouse Bone Marrow Cells. The assay is described as follows: Cytotoxic/cytostatic effects on mouse bone marrow cells (MTT assay). How it is done: In Vitro Assessment of Cytotoxic/Cytostatic Effects of Experimental Compound ^85Rbe-E2 on Mouse Bone Marrow Cells
as §1, §2, §3, §4, §5, §6

Molecules are shown by their SMILES. Where a name gives a salt, the structure may show the parent alone.

`Cc1ccc(S(=O)(=O)Nc2ccccc2NC(=O)c2ccccc2)cc1` [^85Rbe − E2, ^85Rb-enriched rubidium salt of N-benzoyl-N′-(4-toluenesulfonyl)-o-phenylenediamine]: the “Metabolic activity of cells, %” value in assay [1] (8 ng/ml) amounted to 114 ± 7.7%; in assay [1] (16 ng/ml) it was 98 ± 4%; in assay [1] (31 ng/ml) it was 97.8 ± 3.6%; in assay [1] (62 ng/ml) it was 90.7 ± 2.7%; in assay [1] (0.13 μg/ml) it was 95.3 ± 10.7%; in assay [1] (0.25 μg/ml), 100 ± 8.7%. Further, the “Metabolic activity of cells, %” value in assay [1] (0.5 μg/ml) is reported as 90 ± 1%; in assay [1] (1 μg/ml), 0%; in the assay on Normal Human Fibroblasts (1.25 μg/ml) it was 105.1 ± 2.3%; with Normal Human Fibroblasts (2.5 μg/ml) it was 84.4 ± 4.6%; in the assay on Normal Human Fibroblasts (5 μg/ml) it was 82.3 ± 3^ %; in the assay on Normal Human Fibroblasts (10 μg/ml), 82.5 ± 1.3%. In addition, the “Metabolic activity of cells, %” value in the assay on Normal Human Fibroblasts (20 μg/ml) came out at 74 ± 1.3%; in the assay on Normal Human Fibroblasts (38 μg/ml), 68.5 ± 1.8%; in the assay on Normal Human Fibroblasts (75 μg/ml), 67.4 ± 4.7%; in the assay with Normal Human Fibroblasts (150 μg/ml), 72.8 ± 2.1%; with Mouse Bone Marrow Cells (1.25 μg/ml) it was 119.1 ± 0.2%; with Mouse Bone Marrow Cells (2.5 μg/ml), 97.4 ± 1.4%. Also, the “Metabolic activity of cells, %” value was determined as 90.2 ± 3.3% with Mouse Bone Marrow Cells (5 μg/ml); 45 ± 4.7% in the assay with Mouse Bone Marrow Cells (10 μg/ml); 24.2 ± 0.8% in the assay with Mouse Bone Marrow Cells (20 μg/ml); 19.1 ± 1.9% with Mouse Bone Marrow Cells (38 μg/ml); 18.5 ± 0.4% in the assay with Mouse Bone Marrow Cells (75 μg/ml); 0% in the assay with Mouse Bone Marrow Cells (150 μg/ml).
